Patent publication US7528164B2, “Substituted 4-aryl-4h-pyrrolo[2,3-h]chromenes and analogs as activators of caspases and inducers of apoptosis and the use thereof” (Cytovia, Inc., priority 2002, dated 2009)

What was measured:
[1] = tested on: ZR-75-1; assay: Caspase cascade activation assay in ZR-75-1 cells (N-(Ac-DEVD)-N'-ethoxycarbonyl-R110 fluorogenic substrate); format: cell-based; conditions: ZR-75-1 human breast cancer cells, 24 h incubation; for Caspase activity (Ratio): ratio of net RFU of test compound to control; for EC50: sigmoidal dose-response, read-out: Caspase potency EC50
Description: (§1) Human breast cancer cell lines T-47D and ZR-75-1 were grown according to media component mixtures designated by American Type Culture Collection+10% FCS (Invitrogen Corporation), in a 5% CO2-95% humidity incubator at 37° C. T-47D and ZR-75-1 cells were maintained at a cell density between 30 and 80% confluency at a cell density of 0.1 to 0.6×10^6 cells/mL. Cells were harvested at 600×g and resuspended at 0.65×10^6 cells/mL into appropriate media+10% FCS. An aliquot of 45 μl of cells was added to a well of a 96-well microtiter plate containing 5 μl of a 10% DMSO in RPMI-1640 media solution containing about […] of 2-amino-3-cyano-4-(5-methyl-pyridin-3-yl)-7-methyl-4H-pyrrolo[2,3-h]chromene (Example 10) or other test compound (0.016 to 1 μM final). An aliquot of 45 μl of cells was added to a well of a 96-well microtiter plate containing 5 μl of a 10% DMSO in RPMI-1640 media solution without test compound as the control sample. The samples were mixed by agitation and then incubated at 37° C. for 24 h in a 5% CO2-95% humidity incubator. After incubation, the samples were removed from the incubator and 50 μl of a solution containing 20 μM of N-(Ac-DEVD)-N′-ethoxycarbonyl-R110 (SEQ ID No:1) fluorogenic substrate (Cytovia, Inc.; U.S. Pat. No. 6,335,429), 20% sucrose (Sigma), 20 mM DTT (Sigma), 200 mM NaCl (Sigma), 40 mM Na PIPES buffer pH 7.2 (Sigma), and 500 μg/ml lysolecithin (Calbiochem) was added. The samples were mixed by agitation and incubated at room temperature. Using a fluorescent plate reader (Model 1420 Wallac Instruments), an initial reading (T=0) was made approximately 1-2 min after addition of the substrate solution, employing excitation at 485 nm and emission at 530 nm, to determine the background fluorescence of the control sample. After the 3 h incubation, the samples were read for fluorescence as above (T=3 h).
(§2) The Relative Fluorescence Unit values (RFU) were used to calculate the sample readings as follows: RFU(T=3h)−Control RFU(T=0)=Net RFU(T=3h) The activity of caspase cascade activation was determined by the ratio of the net RFU value for 2-amino-3-cyano-4-(5-methyl-pyridin-3-yl)-7-methyl-4H-pyrrolo[2,3-h]chromene or other test compound to that of control samples. The EC50 (nM) was determined by a sigmoidal dose-response calculation (Prism 2.0, GraphPad Software Inc.).

[2] = tested on: T-47D; assay: Caspase cascade activation assay in T-47D cells (N-(Ac-DEVD)-N'-ethoxycarbonyl-R110 fluorogenic substrate); format: cell-based; conditions: T-47D human breast cancer cells, 24 h incubation; for EC50: T47D, sigmoidal dose-response, read-out: Caspase potency EC50; for Caspase activity (Ratio): ratio of net RFU of test compound to control
Description: as §1, §2

| EC50 [1] | EC50 [2] | Structure (SMILES) | Caspase activity (Ratio) [1] | Caspase activity (Ratio) [2] |
| --- | --- | --- | --- | --- |
| 14 nM | 29 nM | Cn1ccc2c3c(ccc21)C(c1ccc(F)c(C#N)c1)C(C#N)=C(N)O3 (stereo not shown) [Example 40J, 2-Amino-3-cyano-4-(3-cyano-4-fluorophenyl)-7-methyl-4H-pyrrolo[2,3-h]chromene] | 5.8 | 3.6 |
| 2 nM | 4 nM | COc1cncc(C2C(C#N)=C(N)Oc3c2ccc2c3ccn2C)c1 (stereo not shown) [Example 41, 2-Amino-3-cyano-4-(5-methoxy-pyridin-3-yl)-7-methyl-4H-pyrrolo[2,3-h]chromene] | 4.2 | 3.8 |
| 57 nM | > 100 nM | CC(C)n1ccc2c3c(ccc21)C(c1cc(Cl)cc(Cl)c1)C(C#N)=C(N)O3 (stereo not shown) [Example 42, 2-Amino-3-cyano-4-(3,5-dichloro-phenyl)-7-isopropyl-4H-pyrrolo [2,3-h]chromene] | 2.6 | 1.8 |
| 55 nM | 58 nM | COc1cc(C2C(C#N)=C(N)Oc3c2ccc2c3ccn2C(C)C)cc(Br)c1OC (stereo not shown) [Example 43, 2-Amino-3-cyano-4-(3-bromo-4,5-dimethoxy-phenyl)-7-isopropyl-4H-pyrrolo[2,3-h]chromene] | 6.3 | 2.5 |
